According to patent US4486445A, “Justicidin insecticidal and antiviral compounds” (E. I. Du Pont de Nemours and Company, priority 1983, dated 1984):
Values after ≈ are worked out from the molar mass of the structure shown.

Legend:
[1] = tested on: Herpes Type 2-Alabama strain; assay: plaque formation inhibition, Herpes Type 2 in HeLa cells; assay type: cell-based
[2] = tested on: Human Rhino Virus (HRV-2); assay: inhibition of HRV-2 in HeLa cells; assay type: cell-based, Human rhinovirus HRV-2; details: Rhinovirus A, 200 PFU
Aedes egypti larvae [3] = assay: insecticidal activity against larvae of A. egypti in water; assay type: in vivo; details: lower concentrations
Spodoptera eridania = assay: insecticidal and feeding inhibition test against southern army worm in pinto bean diet; assay type: in vivo
Protocol: (§1) The insecticidal activity of the crude acetone/water extracts of Justicia extensa, prepared according to the isolation procedure described previously, was tested against laboratory cultures of the mosquito species Aedes egypti (Linnaeus) and southern army worm (SAW) Spodoptera eridania (Cramer). Extracts of leaves, branches and roots were employed in each test.

A/JAX inbred mice = assay: in vivo oral toxicity in A/JAX inbred mice; details: orally, 200 and 100 mg/kg
Protocol: (§2) In vivo toxicity studies of natural and synthetic Justicidin P produced mixed results. […] However, natural and synthetic Justicidin P were toxic to A/JAX inbred mice when administered orally at dosages of 200 and 100 mg/kg.

Herpes Type 1-strain VR3 = assay: plaque formation inhibition, Herpes Type 1 in HeLa cells; assay type: cell-based
[4] = tested on: southern army worm (SAW) Spodoptera eridania; assay: spray applied to SAW; assay type: in vivo
Protocol: When a spray containing 2.0 mg/ml purified Justicidin P in water was applied to SAW, 85% feeding inhibition but 0% kill was observed.

in vitro = details: human, diploid fibroblast cells
out-bred mice = assay: in vivo oral toxicity in out-bred mice; details: orally, up to about 324 mg/kg
Protocol: as §2

IMR-90 cells = details: all concentrations tested
HeLa cells = assay type: cell-based; details: 64 μg/ml to 1 μg/ml
Aedes egypti larvae [5] = assay: insecticidal activity against larvae of A. egypti in water; assay type: in vivo; details: Aedes; larvae of A. egypti in H2O; read-out: EC50 (effective kill concentration for 50% of the experimental larvae)
Protocol: as §1
In tests against larvae of A. egypti, 10 mg of the crude plant extract was thoroughly dispersed in 20 ml of water in a test tube to which 10 first instar larvae were added.

[6] = in vitro toxicity in MDCK cells; assay type: cell-based, Canine; details: dog
Protocol: In vitro toxicity studies of natural Justicidin P were conducted using Madin-Darby Canine Kidney (MDCK) cells and test concentrations ranging between 0.01 and 0.56 μg/ml. In these tests, Justicidin P was suspended in MEM, diluted, and suspended in a purified agar solution. Duplicate plates containing MDCK cell layers were washed twice with HBSS, overlayed with the test compound-agar solutions, and incubated at 34° C., 5% CO2 for 72 hours. At the conclusion of the incubation period, cell layers were stained with 1% crystal violet, rinsed with tap water, dried and visually inspected to determine toxicity.

Structure (SMILES): COc1cc2c(OC)c3c(c(-c4ccc5c(c4)OCO5)c2cc1OC)C(=O)OC3OC (single isomer, unassigned) [Justicidin P (natural)]
- Mean Plaques/Plate ([1]; 0.004 μg/ml, HSV-2, HeLa): 136
- Mean Plaques/Plate ([1]; 0.016 μg/ml, HSV-2, HeLa): 114
- Mean Plaques/Plate ([1]; 0.063 μg/ml, HSV-2, HeLa): 60
- Mean Plaques/Plate ([1]; 0.25 μg/ml, HSV-2, HeLa): 7
- antiviral activity against Herpes Type 2 ([1]; HeLa cells): demonstrated antiviral activity
- inhibition at 0.004 µg/mL ([1]; Human alphaherpesvirus 2, 0.004 μg/ml, HSV-2, HeLa): 14%
- inhibition at 0.016 µg/mL ([1]; Human alphaherpesvirus 2, 0.016 μg/ml, HSV-2, HeLa): 28%
- inhibition at 0.063 µg/mL ([1]; Human alphaherpesvirus 2, 0.063 μg/ml, HSV-2, HeLa): 62%
- inhibition at 0.25 µg/mL ([1]; Human alphaherpesvirus 2, 0.25 μg/ml, HSV-2, HeLa): 96%
- inhibition at 0.016 µg/mL ([2]; HRV2, 0.016 μg/ml): 107%
- inhibition at 0.08 µg/mL ([2]; HRV2, 0.08 μg/ml): ≥ 100%
- inhibition at 0.4 µg/mL ([2]; HRV2, 0.4 μg/ml): ≥ 100%
- inhibition at 2 µg/mL ([2]; HRV2, 2 μg/ml): ≥ 100%
- inhibition at 10 µg/mL ([2]; HRV2, 10 μg/ml): 64%
- insecticidal activity of purified fractions (Aedes egypti larvae [3]): insecticidal component of the J. extensa extracts
- feeding inhibition (Spodoptera eridania; 1 μg/gm in pinto bean diet): 62%
- feeding inhibition (Spodoptera eridania; 10 μg/gm in pinto bean diet): 77%
- feeding inhibition (Spodoptera eridania; 100 μg/gm in pinto bean diet): 85%
- mortality at 1 µg/g (Spodoptera eridania; Spodoptera eridania, 1 μg/gm in pinto bean diet, read-out: kill): 20%
- mortality at 10 µg/g (Spodoptera eridania; Spodoptera eridania, 10 μg/gm in pinto bean diet, read-out: kill): 10%
- mortality at 100 µg/g (Spodoptera eridania; Spodoptera eridania, 100 μg/gm in pinto bean diet, read-out: kill): 60%
- in vivo toxicity (A/JAX inbred mice): toxic
- Mean Plaques/Plate (Herpes Type 1-strain VR3; 0.004 μg/ml, HSV-1, HeLa): 134
- Mean Plaques/Plate (Herpes Type 1-strain VR3; 0.016 μg/ml, HSV-1, HeLa): 117
- Mean Plaques/Plate (Herpes Type 1-strain VR3; 0.063 μg/ml, HSV-1, HeLa): 122
- Mean Plaques/Plate (Herpes Type 1-strain VR3; 0.25 μg/ml, HSV-1, HeLa): 87
- antiviral activity against Herpes Type 1 (Herpes Type 1-strain VR3; HeLa cells): demonstrated antiviral activity
- inhibition at 0.004 µg/mL (Herpes Type 1-strain VR3; Human alphaherpesvirus 1, 0.004 μg/ml, HSV-1, HeLa): 0%
- inhibition at 0.016 µg/mL (Herpes Type 1-strain VR3; Human alphaherpesvirus 1, 0.016 μg/ml, HSV-1, HeLa): 6%
- inhibition at 0.063 µg/mL (Herpes Type 1-strain VR3; Human alphaherpesvirus 1, 0.063 μg/ml, HSV-1, HeLa): 2%
- inhibition at 0.25 µg/mL (Herpes Type 1-strain VR3; Human alphaherpesvirus 1, 0.25 μg/ml, HSV-1, HeLa): 31%
- mortality at 2000 µg/mL ([4]; Spodoptera eridania, topical, read-out: kill): 0%
- feeding inhibition ([4]; spray containing 2.0 mg/ml in water): 85%
- selectivity ratio (in vitro): 10 to 60
- in vivo toxicity (out-bred mice): no toxicity was observed
- cytotoxicity (IMR-90 cells): exhibited cytotoxicity at all concentrations tested
- cytotoxicity (HeLa cells): severe cytotoxicity
- LC50 (Aedes egypti larvae [5]): 0.05 µg/mL (≈ 0.118 µM)
- cytotoxicity at 72 h ([6]; 0.01 μg/ml): 1%
- cytotoxicity at 72 h ([6]; 0.02 μg/ml): 5%
- cytotoxicity at 72 h ([6]; 0.05 μg/ml): 15%
- cytotoxicity at 72 h ([6]; 0.11 μg/ml): 30%
- cytotoxicity at 72 h ([6]; 0.25 μg/ml): 40%
- cytotoxicity at 72 h ([6]; 0.56 μg/ml): 70%
